In assay [1] the target is T1, acyl-CoA synthetase 4 (Acsl4) (Rattus norvegicus, UniProt O35547). Type of assay: biochemical.
For assay [2], the target named is T1, acyl-CoA synthetase 4 (Acsl4). The format is biochemical. The source holds these as a separate data set.

T1 sequence (O35547 whole entry): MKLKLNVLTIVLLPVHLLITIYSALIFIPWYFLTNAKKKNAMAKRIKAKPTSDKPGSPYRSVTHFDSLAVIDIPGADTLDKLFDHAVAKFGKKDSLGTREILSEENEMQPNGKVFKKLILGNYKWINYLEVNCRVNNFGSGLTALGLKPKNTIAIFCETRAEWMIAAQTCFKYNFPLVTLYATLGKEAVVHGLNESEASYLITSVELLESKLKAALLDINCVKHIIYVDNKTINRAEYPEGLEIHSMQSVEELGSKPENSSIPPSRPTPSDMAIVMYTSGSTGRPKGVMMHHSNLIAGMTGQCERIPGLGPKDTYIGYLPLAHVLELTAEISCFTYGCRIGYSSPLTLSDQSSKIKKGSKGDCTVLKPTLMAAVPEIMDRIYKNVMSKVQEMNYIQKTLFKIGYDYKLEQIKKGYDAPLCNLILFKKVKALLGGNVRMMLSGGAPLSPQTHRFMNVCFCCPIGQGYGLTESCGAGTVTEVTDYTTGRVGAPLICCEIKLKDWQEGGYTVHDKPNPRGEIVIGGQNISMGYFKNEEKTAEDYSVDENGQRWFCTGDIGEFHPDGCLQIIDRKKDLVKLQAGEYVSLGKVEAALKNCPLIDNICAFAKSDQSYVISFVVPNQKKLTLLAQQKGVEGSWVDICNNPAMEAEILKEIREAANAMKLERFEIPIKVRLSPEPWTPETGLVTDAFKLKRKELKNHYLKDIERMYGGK

Regarding `CCCC(C(=O)O)C(C)C` (racemic) [PIA, 2-isopropylpentanoic acid], the Ki – broadly, a measure of affinity in units of concentration, obtained from inhibition or displacement – in assay [1] came out at 11.4 ± 1.28 mM.
Take `CCCCC/C=C\C/C=C\C/C=C\C/C=C\CCCC(=O)O` [AA, arachidonic acid]: in assay [2], the Km (usually the substrate concentration at which the rate is half of its maximum) amounted to 4.12 ± 0.56 µM.

These data come from PMC3593989 (Biochimica et biophysica acta, 2013).
